Reference: ChEMBL document CHEMBL4118099, “Targeting Transcriptional Enhanced Associate Domains (TEADs)” (J Med Chem, 2018)

Assays:
[1] = target: Transcriptional enhancer factor TEF-3 (Homo sapiens, UniProt Q15561); experiment: Binding affinity to human His-tagged TEAD4 YBD (217 to 434 residues) expressed in Escherichia coli BL21(DE3) after 30 mins by ITC assay
[2] = target: T1, Transcriptional enhancer factor TEF-1 (Homo sapiens, UniProt P28347); experiment: Binding affinity to human GST-tagged TEAD1 (194 to 411) expressed in Escherichia coli BL21(DE3) by SPR assay
[3] = target: T1, Transcriptional enhancer factor TEF-1; experiment: Inhibition of human His-tagged YAP (50 to 171 residues) interaction with human GST-tagged TEAD1 (194 to 411) expressed in Escherichia coli BL21(DE3) incubated for 30 mins measured by SPR assay

T1 sequence (P28347 whole entry, the tested form may be a part): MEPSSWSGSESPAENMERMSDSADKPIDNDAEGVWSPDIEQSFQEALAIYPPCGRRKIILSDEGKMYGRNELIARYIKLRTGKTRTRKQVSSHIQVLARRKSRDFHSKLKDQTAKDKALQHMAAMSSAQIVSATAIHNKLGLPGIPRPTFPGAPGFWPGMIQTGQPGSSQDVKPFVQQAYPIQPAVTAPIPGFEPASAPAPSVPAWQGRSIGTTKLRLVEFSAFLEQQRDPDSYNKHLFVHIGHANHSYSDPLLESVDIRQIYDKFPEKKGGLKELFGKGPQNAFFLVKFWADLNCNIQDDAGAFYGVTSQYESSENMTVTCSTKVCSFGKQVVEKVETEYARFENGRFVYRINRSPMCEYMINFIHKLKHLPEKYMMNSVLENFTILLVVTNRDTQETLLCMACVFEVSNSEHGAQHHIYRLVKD
Sequence of Transcriptional enhancer factor TEF-3 (Q15561 whole entry, the tested form may be a part): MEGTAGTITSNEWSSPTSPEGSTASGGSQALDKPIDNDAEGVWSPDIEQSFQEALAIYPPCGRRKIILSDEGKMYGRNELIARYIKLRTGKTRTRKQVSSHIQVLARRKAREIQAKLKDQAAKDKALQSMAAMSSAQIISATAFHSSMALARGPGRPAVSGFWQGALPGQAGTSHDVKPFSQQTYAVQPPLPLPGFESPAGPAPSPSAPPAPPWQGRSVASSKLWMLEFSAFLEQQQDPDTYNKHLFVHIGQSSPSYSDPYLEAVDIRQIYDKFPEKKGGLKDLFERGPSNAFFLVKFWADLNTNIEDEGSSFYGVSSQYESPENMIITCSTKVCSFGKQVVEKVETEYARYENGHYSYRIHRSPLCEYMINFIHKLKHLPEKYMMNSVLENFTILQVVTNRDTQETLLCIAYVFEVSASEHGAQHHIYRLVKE

| Kd [1] | Kd [2] | IC50 [3] | Structure (SMILES) |
| --- | --- | --- | --- |
| 28000 nM | – | – | O=C(O)c1cccnc1Nc1cccc(C(F)(F)F)c1 [NIFLUMIC ACID] |
| – | 15 nM | 25 nM | CCCC[C@@H]1NC(=O)[C@H](CCCCN)NC(=O)[C@H](CCCNC(=N)N)NC(=O)[C@H](CC(C)C)NC(=O)[C@@H](NC(=O)[C@H](Cc2cccc(Cl)c2)N[C@H](C)[C@@H]2CCCN2C(=O)[C@@H](NC(C)=O)C(C)C)CCSSC[C@@H](C(=O)N[C@@H](CCCCN)C(=O)N2CCC[C@H]2C(=O)N2CCC[C@H]2C(=O)N[C@@H](CCC(=O)O)C(N)=O)NC(=O)[C@@H](Cc2ccccc2)NC(=O)[C@H](CO)NC(=O)[C@H](C)NC(=O)[C@@H]2CCCN2C1=O |
